Results published in patent US12371463B2, “Methods and compositions for treatment of antibiotic-resistant bacterial infections” (University of Pittsburgh—Of the Commonwealth System of …, priority 2021, dated 2025).
Ends that are not written are not given here.

How the values were obtained:
A. baumannii ATCC 17978 = assay: Experimental evolution in increasing antibiotic concentrations, population survival; format: cell-based
Procedure: Experimental evolution: Three independent evolution experiments were conducted. The ancestor strains were propagated in a rich medium modified from M9 (“M9+”) containing 0.37 millmolar (mM) CaCl2), 8.7 mM MgSO4, 42.2 mM Na2HPO4, 22 mM KH2PO4, 21.7 mM NaCl, 18.7 mM NH4Cl and 0.2 grams per liter (g/L) glucose and supplemented with 20 milliliters per liter (mL/L) MEM essential amino acids (Gibco 11130051), 10 mL/L MEM nonessential amino acids (Gibco 11140050), and 10 mL each trace mineral solution A, B, and C (Corning 25021-3Cl).
In the first experiment, a single clone of A. baumannii ATCC 17978 and P. aeruginosa PA14 were selected and propagated independently for 24 hours in M9^+ in the absence of antibiotics. Each population was then sub-cultured into 10 replicate populations. Ten of the populations (5 planktonic and 5 biofilm) were propagated every 24 hours in increasing concentrations of WLBU2 (SEQ ID NO: 1) starting at 0.5× the minimum inhibitory concentration (MIC). The WLBU2 (SEQ ID NO: 1) was doubled after 72 hours until no population survived the treatment. As a control, the same number of strains were propagated (both planktonically and in biofilm) in the absence of antibiotics (e.g., WLBU2 (SEQ ID NO: 1)). Ten populations (5 planktonic and 5 biofilm) were propagated in increasing convention of the cationic peptide polymyxin B. […]
(§1) For identifying mechanisms of resistance to WLBU2 (SEQ ID NO: 1), laboratory strains of A. baumannii ATCC 17978 and P. aeruginosa PA14 that had no prior exposure to WLBU2 (SEQ ID NO: 1) were propagated. […] Two factors that increase the likelihood of developing resistance were determined to be: i) the mutation supply determined by population size and the mutation rate and ii) the strength of selection imposed by the antibiotic. […] In Table 2, the mean mutations per nucleotide and the cumulative probability of a mutation per nucleotide knowing the mutation rate was calculated using the length of the chromosome, the number of divisions/days, and the length of the exposure before facing inhibitory concentrations of antibiotic (WLBU2 (SEQ ID NO: 1)). […]

P. aeruginosa PA14 = assay: Experimental evolution in increasing WLBU2 concentrations (previously used protocol), population survival; format: cell-based
Procedure: Experimental evolution: Three independent evolution experiments were conducted. The ancestor strains were propagated in a rich medium modified from M9 (“M9+”) containing 0.37 millmolar (mM) CaCl2), 8.7 mM MgSO4, 42.2 mM Na2HPO4, 22 mM KH2PO4, 21.7 mM NaCl, 18.7 mM NH4Cl and 0.2 grams per liter (g/L) glucose and supplemented with 20 milliliters per liter (mL/L) MEM essential amino acids (Gibco 11130051), 10 mL/L MEM nonessential amino acids (Gibco 11140050), and 10 mL each trace mineral solution A, B, and C (Corning 25021-3Cl). […]
as §1

[1] = system: P. aeruginosa (PA14 mutS:T114P); assay: Experimental evolution with hypermutator ancestor, population survival; format: cell-based
Source text: In the second experiment, 5 planktonic populations and 5 biofilm populations under the same conditions described above, and a mutator strain of P. aeruginosa (PA14 mutS:T114P), obtained from Flynn et al. (“Evolution of Ecological Diversity in Biofilms of Pseudomonas aeruginosa by Altered Cyclic Diguanylate Signaling.” J. Bacteriol., 2016, 198:2608-2618). Additionally, 3 planktonic populations and 3 biofilm populations of the hypermutant strain in the absence of antibiotic (e.g., WLBU2 (SEQ ID NO: 1)) pressure were propagated. Hypermutant strains of bacteria, such as P. aeruginosa, can develop in patients, and may be characterized as having increased mutation rates, e.g., up to 1,000-fold, as compared to wild-type bacteria, such as P. aeruginosa (see, e.g., Maciá, Maria D et al. “Hypermutation is a key factor in development of multiple-antimicrobial resistance in Pseudomonas aeruginosa strains causing chronic lung infections.” Antimicrobial agents and chemotherapy vol. 49, 8 (2005): 3382-6).
(§2) The planktonic propagations were serially passaged through 50 uL into 5 mL of M9+(dilution factor 100) which corresponds to approximately 6.66 generations per day. For the biofilm populations, a polystyrene bead (Polysciences, Inc., Warrington, PA) was transferred to fresh media containing 3 sterile beads. Each bead was rinsed in phosphate buffered saline (PBS) before the transfer to reduce the transfer planktonic cells. Each day, black and white marked beads were alternated, ensuring that the bacteria were growing on the bead for 24 hours, which corresponds to 6 to 7.5 generations/day.
Increasing mutation supply by using hypermutator strain promotes evolution resistance: A method to increase mutation supply during evolution experiments was to use an ancestral strain with a higher mutation rate. These mutator genotypes commonly evolve during chronic infections of P. aeruginosa and therefore relevant to antimicrobial resistance (AMR) evolution. […]

[2] = system: wild-type P. aeruginosa PA14; assay: Experimental evolution with extended subinhibitory exposure, population survival; format: cell-based
Procedure: In the third experiment, 5 planktonic populations of the non-hypermutant laboratorial strain P. aeruginosa PA14 were propagated under subinhibitory concentrations of WLBU2 (SEQ ID NO: 1) for 10 days. The populations that survived the treatment with 1×MIC of WLBU2 (SEQ ID NO: 1) were propagated for 2 days.
as §2
Five planktonic populations of wild-type P. aeruginosa PA14 was propagated for 10 days under subinhibitory concentrations of WLBU2 (SEQ ID NO: 1), followed by 2 days at inhibitory concentrations. It was estimated the probability that any given nucleotide would be mutated during this regime was 0.74, with mean mutations per site of 1.52. […] Different colony morphologies were also detected within each population at the end of the experiment. […]

[3] = system: P. aeruginosa PA14 mutS mutator strain and populations evolved from it; assay: MIC by broth microdilution (CLSI), mutator ancestor and mutator-derived evolved populations; format: cell-based; conditions: FIG. 3A, mutS-derived populations and clones from WT ancestor, p<0.05 one-way ANOVA
Procedure: Phenotypic characterization: antimicrobial susceptibility and aggregation assay: The MIC to WLBU2 (SEQ ID NO: 1) and polymyxin B of the whole populations and 4 clones were determined by broth microdilution according to the Clinical and Laboratory Standards Instituted guidelines (CLSI 2019), in which each bacterial sample was tested in 2-fold increasing concentrations of each antibiotic. WLBU2 (SEQ ID NO: 1) was provided by Peptilogics (Peptilogics, Pittsburgh, PA) and polymyxin B was provided by Alfa Aesar (Alfa Aesar, Wardhill, Mass.). The experiments were performed with three replicates of the antibiotics.

[4] = system: P. aeruginosa PA14 resistant clones (Sm, Wr, Sc); assay: Aggregation assay of resistant clones; format: cell-based; conditions: presence (4 μg/ml) versus absence of WLBU2, settled 24 hours at 4° C.
Procedure: To determine the aggregation ability of the 4 clones selected in the subinhibitory experiment, two replicates (R1 and R2) of each clone and the ancestral strain were grown in 5 mL of M9^+ for 24 hours at 37 degrees Celsius (° C.) in a roller drum at 200 revolutions per minute (RPM). After 24 hours, the whole culture of each clone was transferred to a 13 mm glass tube, and the tubes were allowed to settle over 24 hours at 4° C. without shaking. Replicate 1 (R1) of each clone was vortexed for 30 seconds and the optical density at 600 nanometers (OD600) was measured. From R2, 200 μl of the upper fraction was carefully taken without vortexing and the OD600 was measured. The aggregation percentage was estimated as […]. This experiment was performed with five replicates both in the absence and presence (4 μg/ml) of WLBU2 (SEQ ID NO: 1).

[5] = system: ESKAPE (Enterococcus faecium, Staphylococcus aureus, Klebsiella pneumoniae, Acinetobacter baumannii, Pseudomonas aeruginosa and Enterobacter spp.) pathogens; conditions: in vitro and in vivo, even when protected by biofilms; cited from earlier work
[6] = system: P. aeruginosa and S. aureus biofilms; conditions: cited from earlier work
[7] = planktonic and biofilm, 3 days at 0.5x MIC before the MIC
[8] = five mutator populations per lifestyle

Row | Substance | biofilm populations that survived in 4-times the MIC (A. baumannii ATCC 17978; biofilm lifestyle, increasing concentrations over 12 days) | planktonic populations that survived in 4-times the MIC (A. baumannii ATCC 17978; planktonic lifestyle, 5 populations, increasing concentrations over 12 days) | populations that survived exposure of the MIC (A. baumannii ATCC 17978; [7]) | populations that survived exposure of the MIC (P. aeruginosa PA14; [7]) | Populations that survived entire experiment (%) (P. aeruginosa PA14; previously used protocol, strain PA14, 3 days before inhibitory concentrations) | biofilm populations that survived the treatment [1, 8] | planktonic populations that survived the treatment [1, 8] | Populations that survived entire experiment (%) ([1]; hypermutator ancestor PA14 mutS: T114P, 3 days before inhibitory concentrations) | Populations that survived entire experiment (%) ([2]; extended subinhibitory exposure, strain PA14, 10 days subinhibitory then 2 days inhibitory) | populations that survived the prolonged subinhibitory treatment ([2]; five planktonic populations, 10 days subinhibitory then 2 days inhibitory) | resistance level (MIC) of evolved populations versus WT [3] | aggregation of Sm colonies relative to WT [4] | effectiveness against ESKAPE pathogens [5] | activity against biofilms [6]
1 | polymyxin B | four out of the five | all | – | – | – | – | – | – | – | – | – | – | – | –
2 | RRWVRRVRRVWRRVVRVVRRWVRR [WLBU2] | – | – | no populations | no populations | 0 | three | Two | 50 | 40 | two | significantly exceeded WT resistance | only clustered more in the presence of the peptide | highly effective | high activity
